In patent US20040220164A1, “Triaza compound immunoregulatory agents” (priority 2001, published 2004):
In brackets after ≈: the same amount, converted by molar mass. Blank lines part the entries; values can stand above or below the molecule they belong to.

Tests used:
HHV-7 (KHR strain) = assay: Anti-HHV-7 assay in SupT1 cells (antigen expression, flow cytometry, Example 3); type: cell-based; conditions: SUP-T1; SupT1 cells; read-out: IC50 HHV-7 (50% reduction of HHV-7 antigen expression)
Outline: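 SupT1 cells pre-incubated 30 min at room temperature with five-fold compound dilutions, then infected with HHV-7. Every 2–3 days from day 4, half the medium and cells were replaced with compound-free medium. Once microscopic CPE appeared, HHV-7 antigen expression was measured by flow cytometry.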

HIV-1 strain NL4.3 [1] = assay: Anti-HIV-1 assay in MT-4 cells (p24 Ag ELISA, Example 3); type: cell-based
Outline: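 MT-4 cells infected with HIV-1 NL4.3 in presence of five-fold compound dilutions, incubated 3–5 days until strong viral CPE in untreated infected cells. Supernatant p24 core antigen measured by ELISA; IC50 is concentration giving 50% reduction in p24.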

CXCR4 = assay: Cell surface expression of HIV coreceptor; type: cell-based, human; conditions: incubation of the cells with CADA for 4 days
Method: (§1) Expression of various other surface antigens was also examined in MT-4 cells, SupT1 cells and PBMCs after incubation with CADA (16 μM) or CADA-free medium at 37° C. for 4 days. After washing with phosphate-buffered saline (PBS) containing 2% FCS(fetal calf serum), the cells were incubated with mAb (as indicated in Table 1) for 20 min at 4° C. Then the cells were washed, fixed with 1% formaldehyde and analyzed by flow cytometry. All mAbs were purchased from Becton-Dickinson (Erembodegem, Belgium).

CCR5 = assay: Cell surface expression of HIV coreceptor; type: cell-based, human; conditions: incubation of the cells with CADA for 4 days
Method: as §1

HIV-1 strain NL4.3 [2] = assay: Anti-HIV-1 assay (p24 Ag ELISA); type: cell-based; conditions: for IC50: read-out: IC50 against HIV-1 NL4.3; for p24 viral core antigen in supernatant: MT-4, NL4.3
Method: The antiviral activity of CADA against HIV-1 and RHV-7 was investigated. PBMCs and […] cell-depleted PBMCs (removed with CD8 magnetic beads; Dynal AS, Oslo, Norway), previously activated with purified PHA (2 μg/ml) and rhIL-2 (1 ng/ml) for 3 days, were pelleted and exposed to HIV-1 (1 ng p24 Ag per 10^6 cells) for 2 hours at 370C. Then the cells were washed three times with warm medium and cultured in complete medium containing rhIL-2 (1 ng/ml) in the presence or absence of different concentrations of CADA hydrochloride. The anti-HIV-1 assays were also performed in MT-4 and SupT1 cells. CADA hydrochloride was diluted in the plates, then the MT-4 cells or SupT1 cells were added and finally the T-tropic HIV-1 strains. The supernatant was collected at day 5 for MT-4 cells, day 8 for SupT1 cells and day 12 for PBMCs, and stored at −20° C. and analyzed for HIV-1 core antigen by p24 Ag ELISA (NEN, Brussels, Belgium). The SupT1 cells were refreshed on day 4, and half of the medium and cells were replaced and fresh CADA-free medium was added. For the PBMCs, fresh culture medium was added at day 6 containing rhIL-2 (but no CADA). For the anti-HHV-7 assays in PBMCs, CADA hydrochloride was diluted in a plate, 2×10˜cells were added and then HHV-7 (KHR strain) was added in complete medium containing rhIL-2 (1 ng/ml). Fresh culture medium was added again at day 6 containing rhIL-2 (but no CADA). The same infection protocol was used for the SupT1 cells, but without rhIL-2. The SupT1 cells were refreshed on day 4 and day 8, half of the medium and the cells were replaced, and fresh medium without CADA was added. The HHV-7 antigen expression was monitored (at day 12) with a specific mAb to HHV-7 (RK-4) (Advanced Biotechnologies, Columbia, Md.) by flow cytometry, as described previously (Thang, Y., et al., Antiviral Res. 43:23-35 (1999)).
Table 4 presents the results for MT-4 cells pretreated with CADA for 1 day at 8.1 μM and then infected with the HIV-1 strain NL4.3 or RF in the presence or absence of CADA. […] As three CD4 binding events are needed to efficiently activate HIV-1 Env trimers (Layne, S. P., et al., Nature 346: 602-605 (1990)), multimeric CD4 binding is required for HIV infection, further confirming that receptor density plays a crucial role in the efficiency of viral infectivity (Platt, E. J., et al., J. Virol. 71: 883-890 (1997)). […] Primary HIV isolates seem to be much more dependent on the level of CD4 expression (Kabat; D., et al., J. Virol. 68:2570-2577 (1994)). […] Although CD4-independent viruses are described (Hofflian, T. L., et al., Proc. Natl. Acad. Sci. U.S.A. 96: 63 59-6364 (1999)), these are much more sensitive to neutralization by antibodies, which explains the rarity of CD4-independent wild-type HIV variants (Kolchinski, P., et al., J. Virol. 75: 204 1-2050 (2001)).

[3] = Human immunodeficiency virus 1, MT4, 96 h, MT-4 cells, 0.4 μg/ml, 4 days (FIG. 5), read-out: inhibition of NL4.3 virus production (p24)
[4] = Human immunodeficiency virus 1, MT4, MT-4 cells, read-out: IC50 HIV-1 (NL4.3), p24 Ag ELISA

Compound: C=C1CN(S(=O)(=O)c2ccc(C)cc2)CCCN(Cc2ccccc2)CCCN(S(=O)(=O)c2ccc(C)cc2)C1 [CADA]
IC50 (HHV-7 (KHR strain)): 0.35 µg/mL (≈ 0.602 µM) | inhibition at 0.4 µg/mL (HIV-1 strain NL4.3 [1]; [3]): 25% | IC50 (HIV-1 strain NL4.3 [1]; [4]): 0.72 µg/mL (≈ 1.24 µM) | IC50 (HIV-1 strain NL4.3 [1]; Human immunodeficiency virus 1, MT4 cells, Table 6, unit inferred, read-out: IC50(HIV-1)): 0.52 µg/mL (≈ 0.894 µM) | inhibition of NL4.3 virus production (p24) (HIV-1 strain NL4.3 [1]; MT-4 cells, 0.08 μg/ml, 4 days (FIG. 5)): no anti-HIV-1 activity | inhibition of NL4.3 virus production (p24) (HIV-1 strain NL4.3 [1]; MT-4 cells, 2 μg/ml, 4 days (FIG. 5)): significant inhibition | inhibition of NL4.3 virus production (p24) (HIV-1 strain NL4.3 [1]; MT-4 cells, 10 μg/ml, 4 days (FIG. 5)): significant inhibition | p24 level (HIV-1 strain NL4.3 [1]; MT-4 cells, NL4.3, 0.08 μg/ml, 4 days, infected control cells 325 ng/ml): 392 ng/mL | cell surface expression of CXCR4 (CXCR4): remained unchanged | cell surface expression of CCR5 (CCR5): remained unchanged | IC50 (HIV-1 strain NL4.3 [2]; Human immunodeficiency virus 1, MT4, MT-4 cells): 500 nM | IC50 (HIV-1 strain NL4.3 [2]; Human immunodeficiency virus 1, PBMC): 1600 nM | IC50 (HIV-1 strain NL4.3 [2]; Human immunodeficiency virus 1, SUP-T1, SupT1 cells): 3100 nM | p24 viral core antigen in supernatant (HIV-1 strain NL4.3 [2]; cells pre-treated with CADA hydrochloride 8.1 μM 24 hours, medium without CADA after infection, untreated control 158627): 34839 pg/mL | p24 viral core antigen in supernatant (HIV-1 strain NL4.3 [2]; not pre-treated, CADA 0.13 μM): 127838 pg/mL | p24 viral core antigen in supernatant (HIV-1 strain NL4.3 [2]; not pre-treated, CADA 0.6 μM): 63098 pg/mL | p24 viral core antigen in supernatant (HIV-1 strain NL4.3 [2]; not pre-treated, CADA 3.2 μM): <5 pg/mL | p24 viral core antigen in supernatant (HIV-1 strain NL4.3 [2]; pre-treated (CADA 8.1 μM, 24 hours), CADA 0.13 μM after infection): 33785 pg/mL | p24 viral core antigen in supernatant (HIV-1 strain NL4.3 [2]; pre-treated (CADA 8.1 μM, 24 hours), CADA 0.6 μM after infection): <5 pg/mL | p24 viral core antigen in supernatant (HIV-1 strain NL4.3 [2]; pre-treated (CADA 8.1 μM, 24 hours), CADA 3.2 μM after infection): <5 pg/mL

IC50 (HHV-7 (KHR strain)): 0.05 µg/mL (≈ 0.0851 µM) | IC50 (HIV-1 strain NL4.3 [1]; [4]): 0.2 µg/mL (≈ 0.34 µM)
Compound: C=C1CN(S(=O)(=O)c2ccc(C)cc2)CCCN(CC2CCCCC2)CCCN(S(=O)(=O)c2ccc(C)cc2)C1 [QJ028]
inhibition at 0.4 µg/mL (HIV-1 strain NL4.3 [1]; [3]): 88%

IC50 (HHV-7 (KHR strain)): 0.73 µg/mL (≈ 1.26 µM) | IC50 (HIV-1 strain NL4.3 [1]; [4]): 1.22 µg/mL (≈ 2.11 µM)
Compound: C=C1CN(S(=O)(=O)c2ccc(C)cc2)CCCN(C(=O)OCCC)CCCN(S(=O)(=O)c2ccc(C)cc2)C1 [QJ033]
inhibition at 2 µg/mL (HIV-1 strain NL4.3 [1]; Human immunodeficiency virus 1, MT4, 96 h, MT-4 cells, 2 μg/ml, 4 days (FIG. 5), read-out: inhibition of NL4.3 virus production (p24)): 56% | inhibition of NL4.3 virus production (p24) (HIV-1 strain NL4.3 [1]; MT-4 cells, 0.4 μg/ml, 4 days (FIG. 5)): no antiviral activity
